From patent US4398937A, “Selective algaecides for control of cyanochloronta” (The University of Southern Mississippi, priority 1981, dated 1983)
Read-outs that look alike come from different tables or passages of the source.

What was measured:
Format in all cases: cell-based
Chlamydomonas sp. = assay: Test tube culture inhibition of Chlamydomonas sp., algal units/ml; conditions: for reduction of number of algal units/ml vs control / inhibition of growth at 10 ppm: 10 PPM; for inhibition of growth at 10 ppm: Chlamydomonas, 120 h, read-out: reduction of number of algal units/ml, % of the control
Method: (§1) The algae used in this particular study were Chlamydomonas sp., Chlorella vulgaris, Anabaena sp., and Anabaena flos-aquae. Cultures of these algae were obtained, subcultured, and aqueous stocks of algae in 400 ml BBM were prepared and were used in log phase growth to innoculate test cultures.
(§2) The fatty acids which were tested as algal inhibitors were 9, 10-dihydroxystearic acid, linoleic acid, dodecanoic acid, and ricinoleic acid.
(§3) The test procedure involved placing 15 ml of BBM into 25 ml test tubes and innoculating them with 0.2 ml of algal stock solution. Twenty test tubes were innoculated with each algae. Four of these cultures were used with each concentration of each of the fatty acids. Four tubes from each set served as controls. Four concentrations of the fatty acids were used for each alga. The concentrations studied were 0.5 PPM, 1.0 PPM, 5.0 PPM, and 10.0 PPM.
(§4) Algal cultures were incubated under constant light of about 200 foot-candles and at a temperature of 68° F. Bold's Basal Medium (BBM), a modification of Bristol's solution was the medium in which all the cultures were grown. Bold's Basal Medium was prepared as follows:
(§5) Concentrations of fatty acids and the amount of stock solution used to prepare them were as follows:
(§6) Each test tube contained 15 ml sterile BBM. To this was added an aliquot of 0.2 of algal stock solution. Then the appropriate aliquots of warm acid stock solution were added to the appropriate number of culture tubes. These cultures were then incubated 5 days and at that point were counted. The same cultures were also counted after a 12 day growth period.
(§7) Stock solutions of the fatty acids to be tested as algal inhibitors were made from a stock solution of 5% sodium bicarbonate in glass-distilled water. The 5% sodium bicarbonate stock solution was made by dissolving 150 grams of sodium bicarbonate in 3000 ml of glass-distilled water. To insure complete dissolution, the solution was heated and stirred on a magnetic stirrer hot plate. The warm solution was used in preparing the fatty acid stock solutions.
(§8) Quanitative phytoplankton values were determined using the random field method. Filaments, colonies, and aggregations of cells were recorded as algal units. Each unit consisted of approximately 6 cells. Unicellular algae were counted as separate units. Algal counts were made from each of three duplicate cultures. One ml of the algal sample was placed in a Sedgwick-Rafter counting chamber, which is 50 mm long by 20 mm, wide by 1 mm deep. A Wild Heerbrugg, compound microscope with a Whipple grid eyepiece was used to determine quantitative algae values.
(§9) One ml of the algal solution was placed in the counting chamber, and two drops of methyl cellulose were added to minimize the movement of Chlamydomonas sp. Ten random fields were counted and all organisms within the Whipple grid field were enumerated.
(§10) The following formula used to calculate the numbers per milliliter from the field counts: [formula] where: C=number of organisms counted,
(§11) The area of the Whipple grid used was 0.46 mm^2, and the depth of a field was 1 mm. Results of the counts were reported as algal units/ml.

Anabaena flos-aquae = assay: Test tube culture inhibition of Anabaena flos-aquae, algal units/ml; conditions: for inhibition of growth at 10 ppm: Dolichospermum flos-aquae, 120 h, read-out: reduction of algal units/ml of the control
Method: as §1, §2, §3, §4, §5, §6, §7, §8, §9, §10, §11

Anabaena sp. = assay: Test tube culture inhibition of Anabaena sp., algal units/ml; conditions: for inhibition of growth at 10 ppm: read-out: reduction of algal units/ml, % of the control
Method: as §1, §2, §3, §4, §5, §6, §7, §8, §9, §10, §11

Chlorella vulgaris = assay: Test tube culture inhibition of Chlorella vulgaris, algal units/ml
Method: as §1, §2, §3, §4, §5, §6, §7, §8, §9, §10, §11

CCCCCCCCC(O)C(O)CCCCCCCC(=O)O (centres unmarked) [9,10-Dihydroxystearic Acid, 9,10-dihydroxystearic acid]
Algal units/ml (Chlamydomonas sp.; 5 days, 0.5 PPM): 10217 units/ml
Algal units/ml (Chlamydomonas sp.; 5 days, 1.0 PPM): 10436 units/ml
Algal units/ml (Chlamydomonas sp.; 5 days, 5.0 PPM): 11304 units/ml
reduction of number of algal units/ml vs control (Chlamydomonas sp.; 5 days): 5,000 algal units/ml
Algal units/ml (Chlamydomonas sp.; 5 days, 10.0 PPM): 6522 units/ml
Algal units/ml (Chlamydomonas sp.; 12 days, 0.5 PPM): 47826 units/ml
Algal units/ml (Chlamydomonas sp.; 12 days, 1.0 PPM): 46739 units/ml
Algal units/ml (Chlamydomonas sp.; 12 days, 5.0 PPM): 50000 units/ml
Algal units/ml (Chlamydomonas sp.; 12 days, 10.0 PPM): 53478 units/ml
inhibition of growth at 10 ppm (Chlamydomonas sp.; 5 days): 43.4%
Algal units/ml (Anabaena flos-aquae; 5 days, 0.5 PPM): 4348 units/ml
Algal units/ml (Anabaena flos-aquae; 5 days, 1.0 PPM): 4348 units/ml
effect on algal growth (Anabaena flos-aquae; 5 days, 1.0 PPM and less): stimulated
Algal units/ml (Anabaena flos-aquae; 5 days, 5.0 PPM): 2174 units/ml
Algal units/ml (Anabaena flos-aquae; 5 days, 10.0 PPM): 217 units/ml
Algal units/ml (Anabaena flos-aquae; 12 days, 0.5 PPM): 18478 units/ml
Algal units/ml (Anabaena flos-aquae; 12 days, 1.0 PPM): 13478 units/ml
Algal units/ml (Anabaena flos-aquae; 12 days, 5.0 PPM): 9130 units/ml
Algal units/ml (Anabaena flos-aquae; 12 days, 10.0 PPM): 3261 units/ml
effect on algal growth (Anabaena flos-aquae; 12 days, all concentrations): inhibitory effect
inhibition of growth at 10 ppm (Anabaena flos-aquae; 5 days): 90.9%
Algal units/ml (Anabaena sp.; 5 days, 0.5 PPM): 34130 units/ml
Algal units/ml (Anabaena sp.; 5 days, 1.0 PPM): 38043 units/ml
Algal units/ml (Anabaena sp.; 5 days, 5.0 PPM): 30217 units/ml
Algal units/ml (Anabaena sp.; 5 days, 10.0 PPM): 23261 units/ml
inhibition (Anabaena sp.; 5 days, 10.0 PPM): effective as a inhibitor
inhibition of growth at 10 ppm (Anabaena sp.; 288 h, 12 days, 10 PPM): 16.6%
Algal units/ml (Anabaena sp.; 12 days, 0.5 PPM): 158043 units/ml
Algal units/ml (Anabaena sp.; 12 days, 1.0 PPM): 166739 units/ml
Algal units/ml (Anabaena sp.; 12 days, 5.0 PPM): 106957 units/ml
Algal units/ml (Anabaena sp.; 12 days, 10.0 PPM): 98473 units/ml

CCCCC/C=C\C/C=C\CCCCCCCC(=O)O [Linoleic Acid, linoleic acid]
Algal units/ml (Chlorella vulgaris; 5 days, 0.5 PPM): 8697 units/ml
Algal units/ml (Chlorella vulgaris; 5 days, 1.0 PPM): 12174 units/ml
Algal units/ml (Chlorella vulgaris; 5 days, 5.0 PPM): 10870 units/ml
Algal units/ml (Chlorella vulgaris; 5 days, 10.0 PPM): 11304 units/ml
Algal units/ml (Chlorella vulgaris; 12 days, 0.5 PPM): 195652 units/ml
Algal units/ml (Chlorella vulgaris; 12 days, 1.0 PPM): 239130 units/ml
Algal units/ml (Chlorella vulgaris; 12 days, 5.0 PPM): 304348 units/ml
Algal units/ml (Chlorella vulgaris; 12 days, 10.0 PPM): 195652 units/ml
Algal units/ml (Chlamydomonas sp.; 5 days, 0.5 PPM): 11087 units/ml
Algal units/ml (Chlamydomonas sp.; 5 days, 1.0 PPM): 12609 units/ml
Algal units/ml (Chlamydomonas sp.; 5 days, 5.0 PPM): 12391 units/ml
reduction of number of algal units/ml vs control (Chlamydomonas sp.; 5 days): 5,000 algal units/ml
Algal units/ml (Chlamydomonas sp.; 5 days, 10.0 PPM): 6522 units/ml
Algal units/ml (Chlamydomonas sp.; 12 days, 0.5 PPM): 45652 units/ml
Algal units/ml (Chlamydomonas sp.; 12 days, 1.0 PPM): 52174 units/ml
Algal units/ml (Chlamydomonas sp.; 12 days, 5.0 PPM): 50000 units/ml
Algal units/ml (Chlamydomonas sp.; 12 days, 10.0 PPM): 51087 units/ml
inhibition of growth at 10 ppm (Chlamydomonas sp.; 5 days): 43.4%
Algal units/ml (Anabaena flos-aquae; 5 days, 0.5 PPM): 1087 units/ml
effect on algal growth (Anabaena flos-aquae; 5 days, 0.5 PPM): inhibition
Algal units/ml (Anabaena flos-aquae; 5 days, 1.0 PPM): 3261 units/ml
effect on algal growth (Anabaena flos-aquae; 5 days, 1.0 PPM): stimulation
Algal units/ml (Anabaena flos-aquae; 5 days, 5.0 PPM): 1087 units/ml
Algal units/ml (Anabaena flos-aquae; 5 days, 10.0 PPM): 217 units/ml
Algal units/ml (Anabaena flos-aquae; 12 days, 0.5 PPM): 14565 units/ml
Algal units/ml (Anabaena flos-aquae; 12 days, 1.0 PPM): 8261 units/ml
Algal units/ml (Anabaena flos-aquae; 12 days, 5.0 PPM): 4130 units/ml
Algal units/ml (Anabaena flos-aquae; 12 days, 10.0 PPM): 3969 units/ml
effect on algal growth (Anabaena flos-aquae; 12 days, all concentrations): inhibitory effect
inhibition of growth at 10 ppm (Anabaena flos-aquae; 5 days): 90.9%
inhibition of growth at 10 ppm (Anabaena sp.; 120 h, 5 days, 10.0 PPM): 38.1%
Algal units/ml (Anabaena sp.; 5 days, 0.5 PPM): 45217 units/ml
Algal units/ml (Anabaena sp.; 5 days, 1.0 PPM): 46957 units/ml
Algal units/ml (Anabaena sp.; 5 days, 5.0 PPM): 32609 units/ml
Algal units/ml (Anabaena sp.; 5 days, 10.0 PPM): 19783 units/ml
reduction in algal units/ml vs control (Anabaena sp.; 5 days, 10.0 PPM): 12,174 algal units/ml
inhibition of growth at 10 ppm (Anabaena sp.; 288 h, 12 days, 10 PPM): 19.5%
Algal units/ml (Anabaena sp.; 12 days, 0.5 PPM): 114565 units/ml
Algal units/ml (Anabaena sp.; 12 days, 1.0 PPM): 135217 units/ml
Algal units/ml (Anabaena sp.; 12 days, 5.0 PPM): 98261 units/ml
Algal units/ml (Anabaena sp.; 12 days, 10.0 PPM): 95000 units/ml

CCCCCCCCCCCC(=O)O [Dodecanoic Acid, dodecanoic acid]
Algal units/ml (Chlorella vulgaris; 5 days, 0.5 PPM): 8913 units/ml
Algal units/ml (Chlorella vulgaris; 5 days, 1.0 PPM): 11304 units/ml
Algal units/ml (Chlorella vulgaris; 5 days, 5.0 PPM): 11304 units/ml
Algal units/ml (Chlorella vulgaris; 5 days, 10.0 PPM): 10435 units/ml
Algal units/ml (Chlorella vulgaris; 12 days, 0.5 PPM): 217391 units/ml
Algal units/ml (Chlorella vulgaris; 12 days, 1.0 PPM): 217391 units/ml
Algal units/ml (Chlorella vulgaris; 12 days, 5.0 PPM): 217391 units/ml
Algal units/ml (Chlorella vulgaris; 12 days, 10.0 PPM): 217391 units/ml
Algal units/ml (Chlamydomonas sp.; 5 days, 0.5 PPM): 10652 units/ml
Algal units/ml (Chlamydomonas sp.; 5 days, 1.0 PPM): 10435 units/ml
Algal units/ml (Chlamydomonas sp.; 5 days, 5.0 PPM): 12609 units/ml
Algal units/ml (Chlamydomonas sp.; 5 days, 10.0 PPM): 11957 units/ml
Algal units/ml (Chlamydomonas sp.; 12 days, 0.5 PPM): 47174 units/ml
Algal units/ml (Chlamydomonas sp.; 12 days, 1.0 PPM): 48696 units/ml
Algal units/ml (Chlamydomonas sp.; 12 days, 5.0 PPM): 46304 units/ml
Algal units/ml (Chlamydomonas sp.; 12 days, 10.0 PPM): 50217 units/ml
effect on algal growth (Anabaena flos-aquae; 5 and 12 days, all concentrations): some inhibitory effects
Algal units/ml (Anabaena flos-aquae; 5 days, 0.5 PPM): 1087 units/ml
Algal units/ml (Anabaena flos-aquae; 5 days, 1.0 PPM): 2174 units/ml
Algal units/ml (Anabaena flos-aquae; 5 days, 5.0 PPM): 2714 units/ml
Algal units/ml (Anabaena flos-aquae; 5 days, 10.0 PPM): 2174 units/ml
Algal units/ml (Anabaena flos-aquae; 12 days, 0.5 PPM): 20435 units/ml
Algal units/ml (Anabaena flos-aquae; 12 days, 1.0 PPM): 7609 units/ml
Algal units/ml (Anabaena flos-aquae; 12 days, 5.0 PPM): 6739 units/ml
Algal units/ml (Anabaena flos-aquae; 12 days, 10.0 PPM): 6522 units/ml
inhibition of growth at 10 ppm (Anabaena sp.; 120 h): 22.7%
Algal units/ml (Anabaena sp.; 5 days, 0.5 PPM): 40435 units/ml
Algal units/ml (Anabaena sp.; 5 days, 1.0 PPM): 32609 units/ml
Algal units/ml (Anabaena sp.; 5 days, 5.0 PPM): 28261 units/ml
Algal units/ml (Anabaena sp.; 5 days, 10.0 PPM): 28696 units/ml
inhibition of growth at 10 ppm (Anabaena sp.; 288 h): 22.7%
Algal units/ml (Anabaena sp.; 12 days, 0.5 PPM): 139348 units/ml
Algal units/ml (Anabaena sp.; 12 days, 1.0 PPM): 135217 units/ml
Algal units/ml (Anabaena sp.; 12 days, 5.0 PPM): 92826 units/ml
Algal units/ml (Anabaena sp.; 12 days, 10.0 PPM): 91204 units/ml
